Test system: EL-4-HHD target cells
Assay: Immunogenicity in HHD mice after immunization with single peptide-loaded RMAS-HHD-B7.1 cells
Type: in vivo
Conditions: single peptide immunization i.p. three times; E:T 100:1 to 12.5:1
Procedure: FIGS. 14A and 14B are graphs showing immunogenicity of PAP-3 (FIG. 14A) and STEAP-3 (FIG. 14B) peptides in HHD mice. Mice immunized i.p. three times at 7-day intervals, with 2×10^6 irradiated (5000 rad) were single peptide-loaded (PAP-3 for FIG. 14A, STEAP-3 for FIG. 14B) TAP-2 deficient RMAS-HHD-B7.1 cells. Spleens were removed on day 10, and splenocytes were restimulated in vitro by 100 μM PAP-3 or STEAP-3 peptides in OPTIMEM for 2 h at 37° C., 5% CO2, followed by restimulation of lymphocytes for 4 more days in RPMI-HEPES, as described. CTL assays were performed on day 5 with PAP-3 or STEAP-3 loaded on EL4-HHD as targets. Unloaded EL4-HHD or non-relevant HIV derived peptide-loaded EL4-HHD cells were used as negative controls. The effector-to-target ratios of 100:1; 50:1; 25:1; 12.5:1 are shown.
The immunogenicity of the peptides, namely their potential to induce T cell responses, was subsequently examined in an in vivo model. A strain of β2 microglobulin (β2m) HLA-A2.1 Monochain Transgenic, H-2D^b−/−Xβ2m^−/− double knockout mice (HHD mice) was used. Upon vaccination of these mice, a repertoire of human HLA-A2.1 restricted CTLs is produced. The lysis patterns of each of the individual peptides loaded on target cells were first evaluated following immunization with syngeneic dendritic cells pulsed with pools of 2-4 synthetic peptides derived from each examined protein.

Row | Sequence | lysis of peptide-loaded EL-4-HHD target cells
1 | ILLWQPIPV (listed as Homo sapiens) [PAP-3, PAP start position 135] | remarkable and dose-dependent lysis
2 | LLLGTIHAL (listed as Homo sapiens) [STEAP-3, STEAP start position 262] | remarkable and dose-dependent lysis

Reference: patent US7906620B2, “Tumor associated antigen, peptides thereof, and use of same as anti-tumor vaccines” (Yeda Research and Development Co. Ltd., priority 2002, dated 2011)
